Patent US9181182B2, “S1P receptors modulators” (Akaal Pharma PTY LTD, priority 2008, dated 2015)
Counter-ions that a name gives are not always drawn.

Key:
[1] = molecular target: S1P1 human receptor (Homo sapiens (Human), UniProt P21453); experiment: S1P1 [35S]-GTPgamaS binding assay (agonist activity); format: biochemical; details: for Efficacy (% of maximum): S1P1, relative to reference agonist S1P; for EC50: GTPgamaS binding, agonist; for EC50S1P1/EC50S1P: potency at S1P1 relative to S1P
Method: Selected Compounds of the Examples were evaluated at Millipore Corporation, USA, using S1P1 receptor; [^35S]-GTPgamaS binding assay. A [^35S]-GTPgamaS binding assay at Millipore was conducted by GPCR Profiler™ Custom Service Laboratory, Temecula, Calif., Millipore, Inc. to monitor dose-dependent agonist selectivity for selected Examples against the S1P1 receptors. The assay was completed with sample compounds subjected to an eight-point, four-fold dose response curve with starting concentration of 10 μM. Selectivity was determined upon initial addition of compounds followed by a 30 minute incubation at 30° C. Following compound incubation, bounded [^35S]-GTPgamaS was determined by filtration and scintillation counting.
(§1) Independently, selected compounds were evaluated for S1P1 and S1P3 agonistic activity. The S1P1 assay system was GTPgama-S35 binding in membranes from CHO K1 cells, expressing S1P1 human receptor. The S1P3 assay system was calcium mobilization in CHO K1 cells expressing S1P3 human receptor. […] Compounds were tested initially at a concentration of 10 μM.

[2] = system: Human promyelocytic leukemia (HL-60) cells; experiment: Cell viability (growth inhibition) assay, MTS; format: cell-based; details: 50% reduction in cell viability of HL-60 cells, 48 hr incubation
Method: In order to measure the apoptotic effect of compounds on the metabolic activity of viable cells, the following assay was performed on Human promyelocytic leukemia cells. The assay utilises the tetrazolium compound (3-(4,5-dimethylthiazol-2-yl)-5-(3-carboxymethoxyphenyl)-2-(4-sulfophenyl)-2H-tetrazolium, inner salt; (MTS) and an electron coupling reagent (phenazine methosulfate; (PMS). MTS is bioreduced by cells into a formazan product the optical absorbance of which is measured directly from 96 well assay plates. The conversion of MTS into aqueous, soluble formazan is accomplished by dehydrogenase enzymes found in metabolically active cells. The quantity of formazan product as measured by the amount of 490 nm absorbance is directly proportional to the number of living cells in culture.
The assay was based on the National Cancer Institute (NCI) protocol, briefly, cells were grown in RPMI 1640 media supplemented with 10% FCS (foetal calf serum) and kept at 37° C. in a humidified environment with 5% CO2.
For the growth inhibition assay, Human promyelocytic leukemia (HL-60) cells were seeded at a density of 10,000 cells per well in 96 well plates in a volume of 100 μl and allowed to grow for 24 h. Compounds were serially diluted in DMSO at concentrations 100 fold higher than used in the assay (100×). Compounds were freshly prepared for each experiment. The 100× stocks were then diluted to 2× stocks into media and immediately, 100 μl of this 2× stock was added to the cells to create the desired final concentration of drug with a DMSO concentration of 1%. One row of each 96 well plate was treated with DMSO alone as a control. Cells were then incubated for a further 48 hr. Metabolic activity was determined using MTS (Promega) (90% 1.6 mg/ml MTS, 10% 1.6 mg/ml PMS (phenazine methosulfate) made fresh in PBS). 50 μl of this mix was added to all wells of the plates and allowed to incubate for 1.5-2 hr. Plates were shaken gently for about 15 min and absorbance was read on a plate reader at 490 nm. Averages were taken of the readings at each point with standard deviation and plotted using MicroCal Origin.

[3] = molecular target: S1P3 human receptor (Homo sapiens (Human), UniProt Q99500); experiment: S1P3 calcium mobilization in CHO K1 cells; format: cell-based; details: NA = Not Active
S1P3 human receptor, sequence (Q99500 whole entry): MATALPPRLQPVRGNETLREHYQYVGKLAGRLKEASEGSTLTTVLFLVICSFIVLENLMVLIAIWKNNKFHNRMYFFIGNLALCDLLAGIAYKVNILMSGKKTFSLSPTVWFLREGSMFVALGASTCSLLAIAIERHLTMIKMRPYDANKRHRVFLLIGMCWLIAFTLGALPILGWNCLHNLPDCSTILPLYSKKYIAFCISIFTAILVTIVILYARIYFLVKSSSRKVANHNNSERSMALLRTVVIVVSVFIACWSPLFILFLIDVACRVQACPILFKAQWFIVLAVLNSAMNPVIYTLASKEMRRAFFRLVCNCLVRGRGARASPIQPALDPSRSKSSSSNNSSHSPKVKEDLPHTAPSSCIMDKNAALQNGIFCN
Method: as §1

S1P1 human receptor, sequence (P21453 whole entry): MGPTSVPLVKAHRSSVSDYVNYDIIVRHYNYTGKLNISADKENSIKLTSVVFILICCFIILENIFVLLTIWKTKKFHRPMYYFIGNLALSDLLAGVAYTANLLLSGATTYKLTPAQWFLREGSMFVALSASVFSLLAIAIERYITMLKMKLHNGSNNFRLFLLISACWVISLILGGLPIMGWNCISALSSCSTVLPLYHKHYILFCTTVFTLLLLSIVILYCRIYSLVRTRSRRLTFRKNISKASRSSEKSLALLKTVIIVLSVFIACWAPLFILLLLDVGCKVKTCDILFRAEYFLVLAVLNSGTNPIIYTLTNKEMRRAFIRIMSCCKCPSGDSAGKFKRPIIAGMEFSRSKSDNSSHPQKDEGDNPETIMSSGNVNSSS

| Compound | Efficacy (% of maximum) [1] | IC50 ([2]; Homo sapiens) | EC50 [1] | EC50S1P1/EC50S1P [1] | IC50 [2] | EC50 [3] |
| --- | --- | --- | --- | --- | --- | --- |
| NC(CO)(CO)CN1CCc2c(OCc3cc4c(Cl)cc(Cl)cc4o3)cccc21 [41(a), 2-Amino-2-((4-((4,6-dichlorobenzofuran-2-yl)methoxy)indolin-1-yl)methyl)propane-1,3-diol] | 42% | 2550 ± 780 nM | > 1360 nM | 144.46 | – | – |
| CCCCCCCCc1ccc2c(c1)CCN2CC(N)(CO)CO [Example 3, 2-Amino-2-((5-octylindolin-1-yl)methyl)propane-1,3-diol] | 73% | 3700 ± 1020 nM | 2110 nM | 709 | – | – |
| CCCCCCCCc1ccc2c(c1)CCCN2CC(N)(CO)CO [Example 9, 2-Amino-2-((6-octyl-3,4-dihydroquinolin-1(2H)-yl)methyl)propane-1,3-diol] | – | 2460 ± 510 nM | > 860 nM | >1000 | – | – |
| CCCCCCCCOc1ccc(CCC(N)(CO)CO)cc1C12CC3CC(CC(C3)C1)C2.Cl [Example 63, 2-Amino-2-(3-(1-admantyl)-4-(octyloxy)phenethyl)propane-1,3-diol hydrochloride salt] | – | – | > 40000 nM | 3188.66 | 2400 ± 620 nM | – |
| CCOc1ccc(-c2nc(-c3cccc4c3ccn4CC(N)(CO)CO)no2)cc1Cl [Example 49, 2-Amino-2-((4-(5-(3-chloro-4-ethoxyphenyl)-1,2,4-oxadiazol-3-yl)-1H-indol-1-yl)methyl)propane-1,3-diol] | 112% | 10200 nM | 114 nM | 9.26 | – | – |
| 2-Amino-2-((5-(5-3-(1-admantyl)-3-methoxyphenyl)-1,2,4-oxadiazol-3-yl)indolin-1-yl)methyl)propane-1,3-diol [Example 33] | – | – | – | >1000 | 2910 ± 130 nM | – |
| COc1ccc(-c2nc(-c3ccc4c(c3)CCN4CC(N)(CO)CO)no2)cc1C12CC3CC(CC(C3)C1)C2 [Example 30] | – | – | > 55400 nM | >1000 | 3190 ± 260 nM | – |
| CC1(C)C2CCC(CCOc3ccc(CCC(N)(CO)CO)cc3)C1C2.Cl (stereo not drawn) [Example 23, 2-Amino-2-(4-(2-(6,6-dimethylbicyclo[3.1.1]heptan-2-yl)ethoxy)phenethyl) propane-1,3-diol hydrochloride salt] | 72% | 2260 ± 680 nM | 1240 nM | 419 | – | – |
| CCOc1ccc(-c2nc(-c3ccc(C4=CCN(CC(N)(CO)CO)CC4)cc3)no2)cc1OCC [Example 58, 2-Amino-2-((4-(4-(5-(3,4-diethoxyphenyl)-1,2,4-oxadiazol-3-yl)phenyl)-5,6-dihydropyridin-1(2H)-yl)methyl)propane-1,3-diol] | 60% | 1700 nM | > 2060 nM | 150 | – | – |
| CCOc1ccc(-c2nc(-c3ccc4c(c3)CN(CC(N)(CO)CO)C4)no2)cc1OCC [Example 65, 2-Amino-2-((5-(5-(3,4-diethoxyphenyl)-1,2,4-oxadiazol-3-yl)isoindolin-2-yl)methyl)propane-1,3-diol] | 97% | – | 7.4 nM | 0.16 | – | 390 nM |
| CCOc1ccc(-c2nc(-c3cccc4c3ccn4CC(N)(CO)CO)no2)cc1OCC [Example 35, 2-Amino-2-((4-(5-(3,4-diethoxyphenyl)-1,2,4-oxadiazol-3-yl)-1H-indol-1-yl)methyl)propane-1,3-diol] | 106% | 1700 ± 100 nM | 54 nM | 4.75 | – | – |
| COc1ccc(-c2nc(-c3ccc4c(c3)CCN4CC(N)(CO)CO)no2)cc1Cl [Example 7, 2-Amino-2-((5-(5-(3-chloro-4-methoxyphenyl)-1,2,4-oxadiazol-3-yl)indolin-1-yl)methyl)propane-1,3-diol] | 109% | 3070 ± 460 nM | 783 nM | 278 | – | – |
| COc1cc(CCc2cccc(CCC(N)(CO)CO)c2)cc(OC)c1OC [Example 21, 2-Amino-2-(3-(3,4,5-trimethoxyphenethyl)phenethyl)propane-1,3-diol] | – | 28500 ± 3210 nM | – | – | – | – |
| NC(CO)(CO)CN1CCc2c(-c3noc(-c4ccc(-c5ccccc5C(F)(F)F)cc4)n3)cccc21 [Example 36, 2-Amino-2-((4-(5-(2′-(trifluoromethyl)biphenyl-4-yl)-1,2,4-oxadiazol-3-yl)indolin-1-yl)methyl)propane-1,3-diol] | 99% | 1310 ± 350 nM | 501 nM | 65 | – | – |
| Cc1cc2cc(-c3nc(-c4cccc5c4CCN5CC(N)(CO)CO)no3)ccc2o1 [Example 42, 2-Amino-2-((4-(5-(2-methylbenzofuran-5-yl)-1,2,4-oxadiazol-3-yl)indolin-1-yl)methyl)propane-1,3-diol] | 92% | 1700 ± 100 nM | 1420 nM | 117.8 | – | – |

Results, then the compound that gave them:

| Efficacy (% of maximum) [1] | IC50 ([2]; Homo sapiens) | EC50 [1] | EC50S1P1/EC50S1P [1] | IC50 [2] | EC50 [3] | Compound |
| --- | --- | --- | --- | --- | --- | --- |
| 99% | 3340 ± 190 nM | – | – | – | – | CCCCCCCCc1ccc(CCC(N)(CO)CO)cc1 [FTY 720, 2-amino-2-(2-[4-octylphenyl]ethyl)-1,3-propanediol, reference compound] |
| 91% | 3480 ± 140 nM | 1560 nM | 593 | – | – | CCCCCCCCc1ccc2c(c1)CN(CC(N)(CO)CO)C2 [Example 2, 2-Amino-2-((5-octylisoindolin-2-yl)methyl)propane-1,3-diol] |
| 87% | 3000 ± 170 nM | 17.9 nM | 1.3 | – | – | CCCOc1ccc(-c2nc(-c3cccc4c3CCN4CC(N)(CO)CO)no2)cc1Cl [Example 50, 2-Amino-2-((4-(5-(3-chloro-4-propoxyphenyl)-1,2,4-oxadiazol-3-yl)indolin-1-yl)methyl)propane-1,3-diol] |
| – | 1380 ± 170 nM | > 510 nM | >1000 | – | – | CCCCCCCCc1ccc2c(c1)CCN(CC(N)(CO)CO)C2 [Example 10, 2-Amino-2-((6-octyl-3,4-dihydroisoquinolin-2(1H)-yl)methyl)propane-1,3-diol] |
| 94% | – | 2.4 nM | 0.33 | – | 965 nM | CCCc1ccc(-c2nc(-c3cccc4c3CCN4CC(N)(CO)CO)no2)cc1CCC [Example 47, 2-Amino-2-((4-(5-(3,4-dipropylphenyl)-1,2,4-oxadiazol-3-yl)indolin-1-yl)methyl)propane-1,3-diol] |
| 89% | – | 18 nM | 2.22 | – | 3100 nM | CCCOc1ccc(-c2nc(-c3cccc4c3CCN4CC(N)(CO)CO)no2)cc1OCCC [Example 43, 2-Amino-2-((4-(5-(3,4-di-propoxyphenyl)-1,2,4-oxadiazol-3-yl)indolin-1-yl)methyl)propane-1,3-diol] |
| 85% | 1930 ± 580 nM | 131 nM | 23 | – | – | NC(CO)(CO)CN1CCc2cc(OCc3cc4c(Cl)cc(Cl)cc4o3)ccc21 [Example 8, 2-Amino-2-((5-((4,6-dichlorobenzofuran-2-yl)methoxy)indolin-1-yl)methyl) propane-1,3-diol] |
| 82% | 1000 nM | – | 268.44 | – | – | NC(CO)(CO)CN1CCc2c(-c3noc(C45CC6CC(CC(C6)C4)C5)n3)cccc21 [Example 57, 2-Amino-2-((4-(5-(1-adamantyl)-1,2,4-oxadiazol-3-yl)indolin-1-yl)methyl) propane-1,3-diol] |
| – | – | – | – | 3940 ± 400 nM | – | Cc1ccc(OCCCc2ccc(CCC(N)(CO)CO)cc2)c(C23CC4CC(CC(C4)C2)C3)c1 [Example 29, 2-Amino-2-(4-(3-(2-(1-admanynyl)-4-methylphenoxy)propyl)phenethyl) propane-1,3-diol hydrochloride salt] |
